Data on 19 molecules can be found in US10626081B2, “Farnesoid X receptor agonists and uses thereof” (Metacrine, Inc., priority 2015, dated 2020).

Test [1] has as its target T1, FXR (Homo sapiens, UniProt Q96RI1).
T1 construct: expressed in transfected cells; host or cells: CV-1 cells
T1 sequence (Q96RI1 1-486): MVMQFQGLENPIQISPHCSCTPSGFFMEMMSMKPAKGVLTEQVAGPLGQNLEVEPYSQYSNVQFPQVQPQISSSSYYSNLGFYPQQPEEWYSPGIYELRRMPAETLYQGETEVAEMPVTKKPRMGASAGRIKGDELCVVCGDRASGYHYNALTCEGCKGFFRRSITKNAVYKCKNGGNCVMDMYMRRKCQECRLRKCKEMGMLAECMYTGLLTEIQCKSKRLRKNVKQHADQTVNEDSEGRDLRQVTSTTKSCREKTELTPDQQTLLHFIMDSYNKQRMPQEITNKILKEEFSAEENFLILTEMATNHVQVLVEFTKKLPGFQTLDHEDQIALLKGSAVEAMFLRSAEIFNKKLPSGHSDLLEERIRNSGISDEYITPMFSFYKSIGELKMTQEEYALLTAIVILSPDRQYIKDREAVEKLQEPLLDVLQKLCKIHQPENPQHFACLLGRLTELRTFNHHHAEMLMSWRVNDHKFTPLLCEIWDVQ
T1 sequence (P19793 1-462 partner): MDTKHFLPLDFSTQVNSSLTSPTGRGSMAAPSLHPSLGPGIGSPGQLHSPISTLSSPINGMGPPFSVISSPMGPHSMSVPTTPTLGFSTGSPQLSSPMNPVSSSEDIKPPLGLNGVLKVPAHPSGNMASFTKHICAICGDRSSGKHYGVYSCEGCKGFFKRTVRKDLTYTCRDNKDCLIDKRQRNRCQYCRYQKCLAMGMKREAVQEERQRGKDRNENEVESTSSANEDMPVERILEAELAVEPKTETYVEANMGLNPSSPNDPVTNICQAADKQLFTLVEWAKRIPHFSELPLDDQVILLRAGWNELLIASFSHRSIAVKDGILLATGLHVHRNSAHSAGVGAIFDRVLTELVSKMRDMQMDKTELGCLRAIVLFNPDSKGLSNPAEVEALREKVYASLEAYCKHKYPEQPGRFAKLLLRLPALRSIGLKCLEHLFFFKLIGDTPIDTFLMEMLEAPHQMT
Nature of the test: In Vitro FXR Assay (TK): TK-ECRE-luc reporter in transfected CV-1 cells. The note with it: CV-1 cells transfected with hFXR, hRXR, 18 h incubation, luminescence. The format is cell-based. Summed up:
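Luciferase read-out from lysed CV-1 cells exposed 18 h to DMSO-diluted compounds. Cells had been transfected overnight with expression plasmids for hFXR and hRXR plus TK-ECRE-luc reporter and pCMX-YFP, grown in charcoal-stripped serum at 37 °C, 5% CO2.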

The target of test [2] is T1, FXR. Nature of the test: In Vitro FXR Assay (PGL3): luciferase reporter in transfected CV-1 cells. The format is cell-based. The conditions noted are these: CV-1 cells transfected with hFXR, hRXR, PGL3-ECRE*6-luc; 18 h incubation; luminescence. Summed up: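 CV-1 cells in charcoal-stripped FBS were transiently co-transfected with full-length human FXR, RXR, an ECRE×6-luciferase reporter, β-gal and YFP plasmids. Transfected cells were reseeded onto half-log compound dilutions and incubated 18 h. Luciferase luminescence was read after lysis, and EC50 was determined.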
For orientation: In a reporter assay the amount or activity of a reporter protein is the signal.

For the molecule `COC(=O)/C=C/c1cccc(N(Cc2ccc(-c3ccc(N(C)C)cc3)cc2)C(=O)C2COC2)c1` [compound 6, (E)-Methyl 3-(3-(N-((4′-(dimethylamino)-[1,1′-biphenyl]-4-yl)methyl)oxetane-3-carboxamido)phenyl)acrylate], the EC50 (usually the concentration giving half of the maximal effect) on FXR [1] was in the range of 1 to 10 µM. For the same molecule, the “Cmpd/Fex (ratio of the EC50 for the test compound relative to the EC50 of the Fexaramine control)” value on FXR [2] is recorded as “++ (‘++’ means Cmpd/Fex > 10 & < 100)”.

As to `COC(=O)/C=C/c1cccc(N(Cc2ccc(-c3cccc(OC(F)(F)F)c3)cc2)C(=O)C2CCCCC2)c1` [compound 30, (E)-Methyl 3-(3-(N-((3′-(trifluoromethoxy)-[1,1′-biphenyl]-4-yl)methyl)cyclohexanecarboxamido)phenyl)acrylate], the EC50 at FXR [1] was 1 to 10 µM. Also, on FXR [2], the “Cmpd/Fex (ratio of the EC50 for the test compound relative to the EC50 of the Fexaramine control)” value was “+ (‘+’ means Cmpd/Fex > 100)”.

Molecule `COC(=O)/C=C/c1cccc(N(Cc2ccc(-c3ccc(N(C)C)cc3)cc2)C(=O)c2ccc(C#N)cc2)c1` [compound 4, (E)-Methyl 3-(3-(4-cyano-N-((4′-(dimethylamino)-[1,1′-biphenyl]-4-yl)methyl)benzamido)phenyl)acrylate] returned an EC50 on FXR [1] of 1 to 10 µM. The “Cmpd/Fex (ratio of the EC50 for the test compound relative to the EC50 of the Fexaramine control)” value at FXR [2] is “+++ (‘+++’ means Cmpd/Fex < 10)”.

As for `COC(=O)/C=C/c1cccc(N(Cc2ccc(-c3ccc(N(C)C)cc3)c(C)c2)C(=O)C2CCCCC2)c1` [compound 53, (E)-Methyl 3-(3-(N-((4′-(dimethylamino)-2-methyl-[1,1′-biphenyl]-4-yl)methyl)cyclohexanecarboxamido)phenyl) acrylate], on FXR [1], the 50% effective concentration (EC50) lay within 1 to 10 µM. Also, on FXR [2], the “Cmpd/Fex (ratio of the EC50 for the test compound relative to the EC50 of the Fexaramine control)” value is “+++ (‘+++’ means Cmpd/Fex < 10)”.

On to `COC(=O)/C=C/c1cccc(N(Cc2ccc(-c3ccc(N(C)C)cc3)cc2)C(=O)C2CCC2)c1` [compound 15, (E)-Methyl 3-(3-(N-((4′-(dimethylamino)-[1,1′-biphenyl]-4-yl)methyl)cyclobutanecarboxamido)phenyl) acrylate], for which the EC50 on FXR [1] is 1 to 10 µM. Also, at FXR [2], the “Cmpd/Fex (ratio of the EC50 for the test compound relative to the EC50 of the Fexaramine control)” value is given as “+++ (‘+++’ means Cmpd/Fex < 10)”.

As for `COC(=O)/C=C/c1cccc(N(Cc2ccc(-c3ccc(N(C)C)cc3)cc2)C(=O)CC(C)(C)C)c1` [compound 7, (E)-Methyl 3-(3-(N-((4′-(dimethylamino)-[1,1′-biphenyl]-4-yl)methyl)-3,3-dimethylbutanamido)phenyl)acrylate], the EC50 on FXR [1] is ≤ 1 µM. The “Cmpd/Fex (ratio of the EC50 for the test compound relative to the EC50 of the Fexaramine control)” value on FXR [2] was “+++ (‘+++’ means Cmpd/Fex < 10)”.

`COC(=O)/C=C/c1cccc(N(Cc2ccc(C3CCCCC3)cc2)C(=O)C2CCCCC2)c1` [compound 13, (E)-methyl 3-(3-(N-(4-cyclohexylbenzyl)cyclohexanecarboxamido)phenyl)acrylate]: the EC50 on FXR [1] is > 10 µM. In addition, the “Cmpd/Fex (ratio of the EC50 for the test compound relative to the EC50 of the Fexaramine control)” value on FXR [2] is listed as “+ (‘+’ means Cmpd/Fex > 100)”.

As for `CN(C)c1ccc(-c2ccc(CN(c3cccc(/C=C/C(=O)O)c3)C(=O)[C@H]3CC[C@H](O)CC3)cc2)cc1` [compound 89, (E)-3-(3-((1s,4s)-N-((4′-(Dimethylamino)-[1,1′-biphenyl]-4-yl)methyl)-4-hydroxycyclohexane-carboxamido)phenyl) acrylic acid], the EC50 on FXR [1] was > 10 µM. Moreover, the “Cmpd/Fex (ratio of the EC50 for the test compound relative to the EC50 of the Fexaramine control)” value on FXR [2] was “+ (‘+’ means Cmpd/Fex > 100)”.

`COC(=O)/C=C/c1cccc(N(Cc2ccc(-c3ccc(C(C)C)cc3)cc2)C(=O)C2CCCCC2)c1` [compound 70, (E)-Methyl 3-(3-(N-((4′-isopropyl-[1,1′-biphenyl]-4-yl)methyl)cyclohexanecarboxamido)phenyl) acrylate]: the EC50 at FXR [1] was in the range of 1 to 10 µM. In addition, the “Cmpd/Fex (ratio of the EC50 for the test compound relative to the EC50 of the Fexaramine control)” value at FXR [2] is “+++ (‘+++’ means Cmpd/Fex < 10)”.

Consider `COC(=O)/C=C/c1cccc(N(Cc2ccc(-c3ccc(OC)c(C)c3)cc2)C(=O)C2CCCCC2)c1` [compound 52, (E)-Methyl 3-(3-(N-((4′-methoxy-3′-methyl-[1,1′-biphenyl]-4-yl)methyl)cyclohexanecarboxamido)phenyl) acrylate], for which the EC50 on FXR [1] was ≤ 1 µM. The “Cmpd/Fex (ratio of the EC50 for the test compound relative to the EC50 of the Fexaramine control)” value on FXR [2] is on record as “+++ (‘+++’ means Cmpd/Fex < 10)”.

`COC(=O)/C=C/c1cccc(N(Cc2ccc(-c3ccc(N4CCCC4)cc3)cc2)C(=O)C2CCCCC2)c1` [compound 48, (E)-Methyl 3-(3-(N-((4′-(pyrrolidin-1-yl)-[1,1′-biphenyl]-4-yl)methyl)cyclohexanecarboxamido)phenyl) acrylate] came in with an EC50 at FXR [1] of 1 to 10 µM. The “Cmpd/Fex (ratio of the EC50 for the test compound relative to the EC50 of the Fexaramine control)” value at FXR [2] is “+++ (‘+++’ means Cmpd/Fex < 10)”.

Consider `COC(=O)/C=C/c1cccc(N(Cc2ccc(-c3ccc(N(C)C)c(F)c3)cc2)C(=O)C2CCCCC2)c1` [compound 73, (E)-Methyl 3-(3-(N-((4′-(dimethylamino)-3′-fluoro-[1,1′-biphenyl]-4-yl)methyl)cyclohexanecarboxamido)phenyl) acrylate], for which the concentration giving a half-maximal response (EC50) on FXR [1] was ≤ 1 µM. Also, on FXR [2], the “Cmpd/Fex (ratio of the EC50 for the test compound relative to the EC50 of the Fexaramine control)” value is given as “+++ (‘+++’ means Cmpd/Fex < 10)”.

Regarding `COC(=O)/C=C/c1cccc(N(Cc2ccc(-c3cccc(C(C)C)c3)cc2)C(=O)C2CCCCC2)c1` [compound 47, (E)-Methyl 3-(3-(N-((3′-isopropyl-[1,1′-biphenyl]-4-yl)methyl)cyclohexanecarboxamido)phenyl) acrylate], the EC50 at FXR [1] was > 10 µM. Moreover, at FXR [2], the “Cmpd/Fex (ratio of the EC50 for the test compound relative to the EC50 of the Fexaramine control)” value is recorded as “+ (‘+’ means Cmpd/Fex > 100)”.

At FXR [1], `COC(=O)/C=C/c1cccc(N(Cc2ccc(-c3ccc(C#N)cc3)cc2)C(=O)C2CCCCC2)c1` [compound 23, (E)-Methyl 3-(3-(N-((4′-cyano-[1,1′-biphenyl]-4-yl)methyl)cyclohexanecarboxamido)phenyl)acrylate] showed an EC50 of 1 to 10 µM. Moreover, at FXR [2], the “Cmpd/Fex (ratio of the EC50 for the test compound relative to the EC50 of the Fexaramine control)” value is “+++ (‘+++’ means Cmpd/Fex < 10)”.

`COC(=O)/C=C/c1cccc(N(Cc2ccc(-c3cccc(C(F)(F)F)c3)cc2)C(=O)C2CCCCC2)c1` [compound 35, (E)-Methyl 3-(3-(N-((3′-(trifluoromethyl)-[1,1′-biphenyl]-4-yl)methyl)cyclohexanecarboxamido)phenyl)acrylate] gave an EC50 at FXR [1] of 1 to 10 µM. Besides, on FXR [2], the “Cmpd/Fex (ratio of the EC50 for the test compound relative to the EC50 of the Fexaramine control)” value is reported as “++ (‘++’ means Cmpd/Fex > 10 & < 100)”.

Molecule `COC(=O)CCc1cc(C)cc(N(Cc2ccc(-c3ccc(N(C)C)cc3)cc2)C(=O)C2CCCCC2)c1` [compound 90, Methyl 3-(3-(N-((4′-(dimethylamino)-[1,1′-biphenyl]-4-yl)methyl)cyclohexanecarboxamido)-5-methylphenyl)propanoate] showed an EC50 at FXR [1] of 1 to 10 µM. Moreover, the “Cmpd/Fex (ratio of the EC50 for the test compound relative to the EC50 of the Fexaramine control)” value on FXR [2] is on record as “+++ (‘+++’ means Cmpd/Fex < 10)”.

Molecule `COC(=O)/C=C/c1cccc(N(Cc2ccc(-c3cccc(F)c3)cc2)C(=O)C2CCCCC2)c1` [compound 26, (E)-Methyl 3-(3-(N-((3′-fluoro-[1,1′-biphenyl]-4-yl)methyl)cyclohexanecarboxamido)phenyl)acrylate] showed an EC50 at FXR [1] of 1 to 10 µM. For the same molecule, at FXR [2], the “Cmpd/Fex (ratio of the EC50 for the test compound relative to the EC50 of the Fexaramine control)” value is given as “+++ (‘+++’ means Cmpd/Fex < 10)”.

Take `COC(=O)/C=C/c1cccc(N(Cc2ccc(-c3ccc(O)cc3)cc2)C(=O)C2CCCCC2)c1` [compound 57, (E)-Methyl 3-(3-(N-((4′-hydroxy-[1,1′-biphenyl]-4-yl)methyl)cyclohexanecarboxamido)phenyl) acrylate]: the EC50 on FXR [1] is > 10 µM. The “Cmpd/Fex (ratio of the EC50 for the test compound relative to the EC50 of the Fexaramine control)” value on FXR [2] was “+ (‘+’ means Cmpd/Fex > 100)”.

As to `CN(C)c1ccc(-c2ccc(CN(C(=O)C3CCCCC3)c3cccc(/C=C/C(=O)OCCO)c3)cc2)cc1` [compound 86, (E)-2-Hydroxyethyl 3-(3-(N-((4′-(dimethylamino)-[1,1′-biphenyl]-4-yl)methyl)cyclohexanecarboxamido)phenyl) acrylate], the EC50 on FXR [1] lay within 1 to 10 µM. The “Cmpd/Fex (ratio of the EC50 for the test compound relative to the EC50 of the Fexaramine control)” value on FXR [2] was “+++ (‘+++’ means Cmpd/Fex < 10)”.
